Test results as given in US20090010888A1, “Use of cytochrome P450 reductase as insecticidal target” (priority 2004, published 2009).
Values joined by “and” are separate entries in the source; they are usually repeats but may differ in a detail not shown here. Equal values may be shown once. Read-outs that look alike come from different tables or passages of the source.

What was measured:
[1] = system: A. gambiae CYP6Z2 and AgCPR; experiment: 7-benzyloxyresorufin (BR) dealkylation, E. coli membranes coexpressing CYP6Z2 and AgCPR; conditions: read-out: IC50 for inhibition of mosquito CYP6Z2 BR dealkylation; 5 μM BR, 125 microM NADPH, 37° C.
Description: (§1) Measurement of P450 activity was carried out using E. coli membranes coexpressing A. gambiae CYP6Z2 and AgCPR or human CYP3A4 and human CPR. […] Rates were recorded for 5 min at 37° C. using a fluorescence plate reader (Labsystems Fluoroskan Ascent-FL) set to measure λEx 530 λEm585 (BR assay) or λEx 405 λEm530 (BQ assay). Percentage activities were calculated and IC50 curves were plotted using GraFit version 5.
(§2) For P450 assays, E. coli membranes co-expressing human CYP3A4 and CPR were produced as described. […] Plates were preincubated for 5 min at 37° C. before addition of 5 μl of 5 mM NADPH. Rates were recorded for 5 min at 37° C. using a fluorescence plate reader (Labsystems Fluoroskan Ascent-FL) set to measure λEx 530 λEm585 (BR assay) or λEx 405 λEm530 (BQ assay).
(§3) Percentage activities were calculated and IC50 curves were plotted using GraFit version 5.

[2] = molecular target: T1, A. gambiae CPR (Anopheles gambiae, UniProt Q86QH5, H459Y/V230A); experiment: 2′-5′-ADP Sepharose binding of CPR from whole fly extracts; conditions: crude extracts of A. gambiae
Description: 0.1 g of frozen adult A. gambiae or D. melanogaster flies were added to a pre-chilled mortar and ground to a powder in the presence of liquid nitrogen. The powder was transferred to a 50 ml Falcon tube and 2.5 mls of cold solubilisation buffer (20 mM Tris-Cl pH 8; 10% glycerol; 100 mM KCl and 20 mM CHAPS) added. The suspensions were mixed on a rotary wheel at 4° C. for 2 hrs to solubilise the membrane bound proteins, then centrifuged (5 min; 12,000 rpm; 4° C.) to clarify. […] The clarified whole fly protein extracts were applied to the column and the flow-through collected. The column was washed with 5 ml of solubilisation buffer to remove non-binding proteins. To elute the bound proteins, 3×200 μl of 50 mM 2′ AMP in 0.5×solubilisation buffer was added to the mini-columns, and the 3×200 μl elution fractions collected in Eppendorf tubes. To detect CPR, 25 μl each of solubilised pre-column extract (total fly protein); flow through (unbound protein) and eluted proteins were run on a NuPAGE 4-12% Bis-Tris Gel (Invitrogen; UK) and transferred onto Protran® nitrocellulose membrane (Schleicher & Schuell; Germany) according to the manufacturer's instructions. The membrane was blocked overnight at 4° C. in TBST & 5% milk powder, then incubated for 1 hr with a 1:10000 dilution of anti-Ag CPR primary antibody. […]

[3] = molecular target: T2, human CPR (Homo sapiens, UniProt P16435); experiment: Cytochrome c reduction by purified human CPR (inhibition and kinetics); format: biochemical; conditions: for IC50: 25° C., 50 μM cytochrome c, 15 μM NADPH
T2 sequence (P16435 43-677 limits assumed): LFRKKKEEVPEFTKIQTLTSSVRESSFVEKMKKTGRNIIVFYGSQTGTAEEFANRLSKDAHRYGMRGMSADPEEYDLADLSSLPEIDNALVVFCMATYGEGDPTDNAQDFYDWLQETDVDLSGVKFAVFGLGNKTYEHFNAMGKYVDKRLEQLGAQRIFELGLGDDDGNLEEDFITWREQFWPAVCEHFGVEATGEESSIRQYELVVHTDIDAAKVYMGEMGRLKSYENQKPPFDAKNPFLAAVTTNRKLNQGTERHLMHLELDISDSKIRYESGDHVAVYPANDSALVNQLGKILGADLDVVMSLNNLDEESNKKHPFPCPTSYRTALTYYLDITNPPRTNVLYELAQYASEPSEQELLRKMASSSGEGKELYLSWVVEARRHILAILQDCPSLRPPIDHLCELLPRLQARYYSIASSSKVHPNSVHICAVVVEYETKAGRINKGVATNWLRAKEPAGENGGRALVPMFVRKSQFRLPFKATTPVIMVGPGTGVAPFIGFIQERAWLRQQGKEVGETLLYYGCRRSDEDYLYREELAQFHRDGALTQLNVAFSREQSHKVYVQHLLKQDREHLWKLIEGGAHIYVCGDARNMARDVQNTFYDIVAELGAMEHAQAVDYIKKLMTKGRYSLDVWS
Description: (§4) Errors are deviation from the fit of the curve (GraFit 5.06).
(§5) Cytochrome c assays and enzyme kinetic measurements were carried out 25° C. as described^19, using 0.75 pmol purified AgCPR or hCPR. Apparent kinetic parameters (non-linear fitting: Michaelis-Menten equation) and IC50 values were calculated using GraFit version 5.06.

[4] = molecular target: T3, human CYP3A4 and human CPR (Homo sapiens, UniProt P16435)
T3 sequence (P16435 1-677): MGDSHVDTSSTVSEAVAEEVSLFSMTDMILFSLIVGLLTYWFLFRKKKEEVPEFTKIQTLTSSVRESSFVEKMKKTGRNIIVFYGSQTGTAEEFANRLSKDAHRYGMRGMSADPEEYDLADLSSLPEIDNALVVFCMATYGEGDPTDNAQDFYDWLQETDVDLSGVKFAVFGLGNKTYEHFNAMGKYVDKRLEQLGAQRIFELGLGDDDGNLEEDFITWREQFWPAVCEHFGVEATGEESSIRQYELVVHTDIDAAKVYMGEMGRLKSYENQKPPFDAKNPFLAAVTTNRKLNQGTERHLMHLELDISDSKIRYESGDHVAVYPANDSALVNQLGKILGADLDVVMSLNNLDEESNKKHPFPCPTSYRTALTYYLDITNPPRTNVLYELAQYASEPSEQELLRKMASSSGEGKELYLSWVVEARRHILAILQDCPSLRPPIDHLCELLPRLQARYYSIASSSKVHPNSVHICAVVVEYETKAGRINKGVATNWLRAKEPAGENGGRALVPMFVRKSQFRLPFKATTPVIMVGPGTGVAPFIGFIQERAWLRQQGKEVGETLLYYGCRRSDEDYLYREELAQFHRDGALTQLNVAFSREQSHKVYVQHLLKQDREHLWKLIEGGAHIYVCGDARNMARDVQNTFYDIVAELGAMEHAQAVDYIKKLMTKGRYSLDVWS
Description: as §1, §2, §3

[5] = molecular target: T1, A. gambiae CPR; experiment: biochemical; format: biochemical
Description: as §4, §5

T1 sequence (Q86QH5 entry or part of it V230A/H459Y): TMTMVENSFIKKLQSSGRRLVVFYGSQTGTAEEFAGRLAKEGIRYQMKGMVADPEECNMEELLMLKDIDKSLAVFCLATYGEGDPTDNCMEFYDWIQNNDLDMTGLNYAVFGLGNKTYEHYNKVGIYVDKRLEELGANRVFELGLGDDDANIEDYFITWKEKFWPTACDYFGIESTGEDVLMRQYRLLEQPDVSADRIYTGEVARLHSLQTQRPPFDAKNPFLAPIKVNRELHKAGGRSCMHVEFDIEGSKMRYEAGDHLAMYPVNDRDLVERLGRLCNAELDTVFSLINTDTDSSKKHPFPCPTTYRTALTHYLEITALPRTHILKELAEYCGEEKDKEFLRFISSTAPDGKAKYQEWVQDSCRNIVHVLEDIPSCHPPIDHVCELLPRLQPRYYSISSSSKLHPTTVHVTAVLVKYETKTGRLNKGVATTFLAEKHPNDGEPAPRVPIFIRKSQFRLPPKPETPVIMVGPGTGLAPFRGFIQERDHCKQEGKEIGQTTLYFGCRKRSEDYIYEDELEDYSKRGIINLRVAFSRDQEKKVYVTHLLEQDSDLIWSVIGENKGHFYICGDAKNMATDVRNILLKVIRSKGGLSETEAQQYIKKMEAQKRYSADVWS

## 2′,5′-ADP [2′-5′-ADP]
[1]
  IC50: 234 µM
[2]
  binding of CPR to 2′-5′-ADP (Sepharose): does not bind
[3]; human CPR
  IC50: 28 µM
[4]
  IC50: 10 µM

## c1ccc([I+]c2ccccc2)cc1 [DPI, diphenyliodonium chloride]
[5]
  IC50: 28 µM
[3]; human CPR
  IC50: 361 µM

## NC(=O)C1=CN([C@@H]2O[C@H](COP(=O)(O)OP(=O)(O)OC[C@H]3O[C@@H](n4cnc5c(N)ncnc54)[C@H](OP(=O)(O)O)[C@@H]3O)[C@@H](O)[C@H]2O)C=CC1 [NADPH, reduced form of nicotinamide adenine dinucleotide phosphate]
[5]; read-out: Km NADPH (apparent)
  Km: 30 µM
[3]; human CPR, read-out: Km NADPH (apparent)
  Km: 14 µM and 15 µM

## cytochrome c
[5]; mosquito enzyme, read-out: Km cytc
  Km: 23 µM
[3]; human enzyme, read-out: Km cytc
  Km: 19 µM
